Entries after “also recorded” stand apart in the source; their conditions may differ.
Columns and labels:
Format in all cases: in vivo, mouse
[1] = Core temperature and blood pressure after nicotinamide mononucleotide administration in post-ischemic animals
Description: For quantification of uninjured cells within the CA1 sector of the hippocampus an unbiased stereological technique was used (27). […] This is in accord with the degree of hippocampal injury reported in other models of mouse forebrain ischemia. There were no seizure incidents during the first hours of recovery however there was about 10% mortality in the 5 days recovery group. […] To exclude the possibility that the protection was due to hypothermia, the treated animals' core temperature was monitored for 1 h after the nicotinamide mononucleotide administration. The body temperature was stable at 37.5° C. Similarly there was no effect of nicotinamide mononucleotide administration on the animals' blood pressure that was maintained between 80 and 100 mmHg after the compound injection.

[2] = tested on: tissue NAD(H) levels; assay: Tissue NAD(H) levels in post-ischemic brain regions (enzymatic cycling assay); details: 10 min forebrain ischemia, NMN intraperitoneally at 1 h of reperfusion, measured at 24 h of recovery
Procedure: FIGS. 3A-3B show the effect of forebrain ischemia and nicotinamide mononucleotide administration on tissue NAD(H) levels. Mice were subjected to 10 min transient forebrain ischemia and allowed to recover for 24 h. After decapitation their brains were removed, the designated regions dissected and frozen in liquid nitrogen. One group of animals received nicotinamide mononucleotide at 1 hour of recovery. The NAD content was determined following perchloric acid extraction and utilized a coupled fluorometric cycling enzymatic assay (FIG. 3A). There is significant loss of NAD^+ in striatum, CA1, and DG regions. *p<0.05. […] Black: sham; white: ischemia; gray: NMN treatment. FIG. 3B: Effect of ischemia on CD38 activity. […] The CD38 enzyme activity was determined using 1-etheno-NAD that, when hydrolyzed by CD38, generates a fluorescent product. The rate of fluorescence increase corresponds to the CD38 enzyme activity. […]
The tissue NAD(H) levels were determined utilizing an enzymatic cycling assay. […] The parietal cortex, striatum, the CA1 sector and CA3-DG regions of the hippocampus were dissected and the tissue NAD(H) levels were determined following perchloric acid extraction. […] Nicotinamide mononucleotide was administrated intraperitoneally at 1 h of reperfusion and the tissue NAD(H) content was determined at 24 h of recovery.

[3] = tested on: traumatic brain injury mice; assay: Open field test (anti-clockwise/clockwise rotations) after traumatic brain injury; details: NMN 500 mg/kg I.P. at 1 hour post-injury; 7 days post-injury; listed as NMN
Procedure: (§1) FIGS. 9A-9B show traumatic brain injury-induced deficits in sensorimotor function and cognition are ameliorated by nicotinamide mononucleotide treatment. FIG. 9A: Fine motor coordination deficits were quantified using a beam walk test in C57Bl/6 mice subjected to moderate-level traumatic brain injury and treated with nicotinamide mononucleotide (500 mg/kg, I.P.) or equal volume of vehicle at 1 hour post-injury. Hindlimb foot placement was recorded up to 7 days post-injury and the number of foot faults recorded from 50 steps. Naïve C57Bl/6 mice served as a control group. […] Analysis was by repeated measures one-way ANOVA, followed by post-hoc adjustments using Student-Newman-Keuls test. Mean ±S.E.M.; n=5/group. FIG. 9B: Cognitive performance was analyzed by measuring the number of anti-clockwise and clockwise rotations of traumatic brain injury mice in an open field test performed at 7 days post-injury.
The effect of nicotinamide mononucleotide on traumatic brain injury-induced changes in fine motor coordination examined using a beam walking task in which mice were trained to cross an elevated narrow wooden beam. The mouse was placed on the left end of the beam and the number of foot faults for the right hind limb was recorded over 50 steps on the beam. […] Their activity was measured and recorded using the Any-maze video tracking system. […]

[4] = tested on: C57Bl/6 mice subjected to moderate-level traumatic brain injury; assay: Beam walk test after controlled cortical impact traumatic brain injury; details: NMN 500 mg/kg I.P. at 1 hour post-injury, 7 days post-injury, p<0.001
Procedure: as §1
In a clinically relevant model of traumatic brain injury, controlled cortical impact (CCI) (Fox et al. 1998), was induced in C57Bl/6 mice and these animals were followed for up to 1 year post-injury to assess post-traumatic tissue loss and neurodegeneration. […] One group was evaluated for changes between 24 h and 3 months post-injury; a second group was used to compare changes in TBI-induced lesion volume between 6 and 12 months. […]

NC(=O)c1ccc[n+]([C@@H]2O[C@H](COP(=O)([O-])O)[C@@H](O)[C@H]2O)c1 [nicotinamide mononucleotide]
effect on animals' blood pressure ([1]; after the compound injection (500 mg/kg)): no effect | body (core) temperature after administration ([1]; monitored for 1 h after NMN administration (500 mg/kg)): 37.5 °C | post-ischemic brain tissue NAD(H) levels [2]: reversed; also recorded: complete recovery of brain tissue NAD(H) levels | post-ischemic brain tissue NAD(H) levels ([2]; listed as NMN): prevented the post-ischemic NAD catabolism | cognitive performance: anti-clockwise rotations in open field test [3]: virtually indistinguishable from the naïve mice; also recorded: reduced anti-clockwise rotations | fine motor coordination (beam walk foot faults) vs vehicle-treated TBI mice [4]: significant improvement in motor performance | fine motor coordination (beam walk foot faults) vs vehicle-treated TBI mice ([4]; listed as NMN): significantly reduced deficits in fine motor coordination
